The values below come from article PMC6537213, “Ellagic acid microspheres restrict the growth of Babesia and Theileria in vitro and Babesia microti in vivo” (Parasites & Vectors, 2019).

Experiment [1] concerns Babesia microti (Munich strain). Nature of the experiment: in vivo growth inhibition and drug combination assays in B. microti-infected BALB/c mice. Particulars: first assay; 35 mg/kg EA i.p., 5 days; peak on day 8; DDW control 57.7%. As to the method:
(§1) A microaerophilic stationary-phase culture system was used to maintain Babesia parasite cultures for a long time. Briefly, B. caballi (USDA strain) was grown using equine red blood cells (RBCs) in GIT medium supplemented with 40% equine serum. Theileria equi (USDA strain) was grown in equine RBCs in Medium 199 (M199; Sigma-Aldrich, Tokyo) supplemented with 40% equine serum, and hypoxanthine (MP Biomedicals, Santa Ana, CA, USA) at a final concentration of 13.6 μg/ml was used as a vital supplement. Babesia bovis (Texas strain) and B. bigemina (Argentina strain) were grown in bovine RBCs in M199 medium supplemented with 40% bovine serum. Meanwhile, B. divergens (Germany strain) was grown in bovine RBCs in medium RPMI 1640 (Sigma-Aldrich, Tokyo) supplemented with 40% bovine serum. All media included 60 U/ml penicillin G, 60 μg/ml streptomycin and 0.15 μg/ml amphotericin B (Sigma-Aldrich, St. Louis, MO, USA) to prevent bacterial contamination. The cultures were incubated at 37 °C in a humidified chamber with an atmosphere of 5% CO2, 5% O2 and 90% N2. Babesia microti (Munich strain) was recovered from − 80 °C stock, intraperitoneally injected in two 8-week old female BALB/c mice (Clea Japan, Tokyo, Japan), and the parasitemia was monitored every 2 days. The mice were euthanized using an anesthesia system containing isoflurane after parasitemia reached approximately 30%, and blood was collected by cardiac puncture to initiate the in vivo experiment. The animal experiment was conducted in accordance with the Regulations for Animal Experiments of Obihiro University of Agriculture and Veterinary Medicine, Japan (animal experiment accession number: 290168).
In vivo growth inhibition assays of EA, β-CD EA and APSP EA were performed in B. microti-infected BALB/c mice in accordance with the previous protocol in two separate trials. […] The mice in groups 2–8 were intraperitoneally (i.p.) injected with 0.5 ml of inoculum (1 × 10^7 B. microti-iRBCs). Group 1 was left uninfected and untreated as a negative control. When the average parasitemia in all mice reached 1%, drug treatment was initiated for 5 consecutive days. […] DA at a concentration of 25 mg/kg body weight (BW) was administrated i.p. to the third group as a reference drug control.

Experiment [2] concerns B. bigemina (Argentina strain). In words: in vitro growth inhibition assay (SYBR Green I fluorescence), single drug and 1:1 combination. The format is cell-based, Babesia bigemina. As to the method:
as §1
Assays were performed in accordance with the previously described protocol. Briefly, B. bovis, B. bigemina, B. divergens, B. caballi and T. equi cultures were harvested and adjusted to 1% parasitemia with fresh RBCs to start the inhibition assay. The assays were carried out using 96-well microtiter plates where only the 60 inner wells were used, while the peripheral wells were filled with sterile distillate water to reduce evaporation during incubation. In five 96-well plates, a volume of 2.5 µl each of B. bigemina- and B. bovis-iRBCs and 5 µl each of B. divergens-, B. caballi- and T. equi-iRBCs were added to each well in triplicate and mixed with a culture medium containing the drug concentrations to a total volume of 100 µl. Various concentrations of EA, β-CD EA, APSP EA, DA, CF and AQ were dissolved in a culture medium using two-fold dilution. Wells containing DMSO at a final concentration of 0.4% and iRBCs were used as a positive control, while wells with non-infected RBCs and culture medium were used as a negative control. Additionally, a drug combination assay was performed in parallel with the single drug assay at a constant ratio of 1:1, as described previously. […] The plates were incubated in a humidified incubator with 5% CO2, 5% O2 and 90% N2 for 4 days without changing the medium. On day 4, 100 µl of a lysis buffer containing 2 × SG1 was added to each well. The plates were wrapped with aluminum foil to avoid direct light exposure and incubated at room temperature. After 6 h, fluorescence values were measured using a fluorescence spectrophotometer (Fluoroskan Ascent; Thermo LabSystems, Oceanside, CA, USA) with excitation and emission wavelengths of 485 and 518 nm, respectively. The fluorescence data were subtracted from the negative control and used to calculate the IC50. […]

Regarding `O=c1oc2c(O)c(O)cc3c(=O)oc4c(O)c(O)cc1c4c23` [EA, Ellagic acid], the peak parasitemia level in experiment [1] is 29.5%. In addition, the “concentration that significantly inhibited the growth” value in experiment [2] (B. bigemina, t-test vs control) worked out at 0.078 µM. The 50% inhibitory concentration (IC50) in experiment [2] (Babesia bigemina, 96 h, B. bigemina in vitro culture, 4 days) was 7.87 ± 5.8 µM.
